{"source": "paper PMC9767416", "about": "“Discovery of small molecule mechanistic target of rapamycin inhibitors as anti-aging and anti-cancer therapeutics” (Frontiers in Aging Neuroscience, 2022)", "assay_type_in_all_cases": "cell-based, human", "key": {"[1]": {"tested_on": "temozolomide (TMZ)-induced senescent U87 cells", "assay": "Crystal violet and resazurin assays in TMZ-induced senescent U87", "details": "0–100 μM, 24 h", "protocol": "To obtain ionizing radiation (IR)-induced senescent cells, proliferating RPE-1 cells were exposed to a single dose of X-rays (20 Gy) using Pantak HF160 (Gulmay, Surrey, UK) X-ray instrument equipped with Pantak Seifert HF320 generator, MXR-161 X-ray tube (Comet AG, Flamatt, Switzerland), and an aluminum filter using current 1–10 mA. After irradiation, the cells were cultured for an additional 7 days until the development of the senescent phenotype ([Salovska et al., 2022]). To induce docetaxel-induced senescence (DIS), BJ cells were exposed to 5 nM docetaxel for 7 days, as described previously ([Sapega et al., 2018]). […]\nFor the crystal violet assay, the cells were washed twice with 150 μL PBS and stained with 30 μL 0.5% (w/v) crystal violet in 20% methanol for 15 mins. […] The absorbance was read at 595 nm using a microplate reader (Envision, PerkinElmer, Waltham, MA, USA). The absorbance of crystal violet in treated cells was expressed as a percentage of absorbance in untreated cells. Each condition was measured at least in triplicate.\nFor the resazurin assay, 200 μL of the culture medium of each well was exchanged for 100 μL of resazurin (stock solution 30 mg/mL; Sigma, St. Louis, MO, USA) diluted 10 times in the culture medium, and the cells were incubated at 37°C for 1–3 h. Reading of fluorescence was done using a microplate reader (PerkinElmer, Waltham, MA, USA). […]"}, "[2]": {"tested_on": "mTORC2 substrate AKT (Ser473 phosphorylation)", "assay": "Immunoblot of phospho-AKT (Ser473), mTORC2 activity in cells", "details": "100 μM; for AKT phosphorylation relative to control cells: after 5 h", "excerpt": "For immunoblotting, the following primary and secondary antibodies were used: rabbit polyclonal p70 S6 kinase (#9202), rabbit monoclonal phospho-p70 S6 kinase (Thr389) ([…]), rabbit monoclonal AKT kinase (#4691), rabbit monoclonal phospho-AKT kinase (Ser473) ([…]) obtained from Cell Signaling Technology, Inc., Danvers MA, USA; p21waf1 (sc-56335) obtained from Santa Cruz Biotechnology, Inc., Dallas, TX, USA and mouse monoclonal anti-GAPDH (GTX3066) purchased from GeneTex, Inc., Irvine, CA, USA; goat anti-mouse (170-6516) or anti-rabbit IgG (H + L)-HRP conjugate (170-6515) purchased from BioRad, Hercules, CA, USA.\nCells were harvested 1 and 5 h after treatment. Cells were washed with PBS, harvested into SDS sample lysis buffer (SLB; 2% SDS, 63 mM Tris–HCl, pH 6.8, and 10% glycerol), sonicated, and centrifuged. Protein concentration was determined by BCA assay (Pierce Biotechnology, Rockford, IL, USA); samples were adjusted to equal protein amount (40 μg) with SLB containing dithiothreitol (1% final conc.) and bromophenol blue (0.02% final conc.), and separated by SDS–PAGE in Tris-glycine-SDS buffer (BioRad, 1610772). Proteins were electrotransferred onto a nitrocellulose membrane (0.45 μm NC, Amersham™, GE Healthcare Life Sciences) using wet transfer in Tris-glycine buffer (BioRad, 1810704) with 10% methanol (Sigma, 59304). After blocking with 5% non-fat milk in PBS/Tween-20, proteins were detected using specific antibodies and horseradish peroxidase (HRP)-conjugated secondary antibodies. Peroxidase activity was detected by ECL detection reagents (Thermo Fisher Scientific, Waltham, MA, USA).\nBJ, RPE-1, U87, U373, T98, A172, MDA-MB-231, H1299, and DU-145 cells were exposed to compound 3 (100 μM) for 1 and 5 h and the level of AKT serine 473 (Ser473) phosphorylation was assayed by immunoblotting. […] However, in several cell types (BJ, RPE-1, MDA-MB-231, H1299, and DU-145), the AKT phosphorylation was higher after 5 h of exposure than in control cells (Figure 11)."}, "IR-RPE-1 senescent cells": {"tested_on": "IR-RPE-1 senescent cells", "assay": "Time-lapse microscopy of IR-senescent RPE-1", "details": "100 μM, 72 h", "protocol": "To obtain ionizing radiation (IR)-induced senescent cells, proliferating RPE-1 cells were exposed to a single dose of X-rays (20 Gy) using Pantak HF160 (Gulmay, Surrey, UK) X-ray instrument equipped with Pantak Seifert HF320 generator, MXR-161 X-ray tube (Comet AG, Flamatt, Switzerland), and an aluminum filter using current 1–10 mA. After irradiation, the cells were cultured for an additional 7 days until the development of the senescent phenotype ([Salovska et al., 2022]). To induce docetaxel-induced senescence (DIS), BJ cells were exposed to 5 nM docetaxel for 7 days, as described previously ([Sapega et al., 2018]). To prepare temozolomide (TMZ)-induced senescence, U87 cells were exposed to 100 μM TMZ for 14 days.\nFor auto-monitoring of cells, Incucyte SX1 Live-Cell Analysis System (Sartorius, Göttingen, Germany), located in an incubator maintained at 37°C under a 5% CO2 atmosphere and 95% humidity, was utilized. The images (1,408 × 1,040 pixels at 1.24 microns/pixel) were acquired using a 10× objective lens in phase contrast, red fluorescence (excitation: 585 ± 20 nm, emission: 635 [625, 705] nm, acquisition time: 100 ms) channels every 60 min during 72 h. The first image was acquired 30 min after adding compounds. The images were processed to measure cell confluence using Incucyte software (version 2022A). […]"}, "U87 cells": {"tested_on": "U87 cells", "assay": "Time-lapse microscopy with annexin V staining of proliferating U87", "protocol": "For auto-monitoring of cells, Incucyte SX1 Live-Cell Analysis System (Sartorius, Göttingen, Germany), located in an incubator maintained at 37°C under a 5% CO2 atmosphere and 95% humidity, was utilized. The images (1,408 × 1,040 pixels at 1.24 microns/pixel) were acquired using a 10× objective lens in phase contrast, red fluorescence (excitation: 585 ± 20 nm, emission: 635 [625, 705] nm, acquisition time: 100 ms) channels every 60 min during 72 h. The first image was acquired 30 min after adding compounds. The images were processed to measure cell confluence using Incucyte software (version 2022A). Annexin V – Dy647, Apronex (diluted 1:1,000) was used for apoptotic cell staining."}}}
{"smiles": "Nc1ccc(C(=O)Nc2cccc(-c3c[nH]c4ncccc34)c2)cc1O", "note": "[Compound 3, N-(3-(1H-pyrrolo[2,3-b]pyridin-3-yl)phenyl)-4-amino-3-hydroxybenzamide]", "values": [{"measurement": "effect on the readout of crystal violet and resazurin assays", "setting": "[1]", "result": "similarly to proliferating U87 cells"}, {"measurement": "effect on Ser473 AKT phosphorylation", "setting": "[2]; A172, after 1 h", "result": "Transient inhibition"}, {"measurement": "effect on Ser473 AKT phosphorylation", "setting": "[2]; BJ, after 1 h", "result": "Transient inhibition"}, {"measurement": "AKT phosphorylation relative to control cells", "setting": "[2]; BJ", "result": "higher"}, {"measurement": "effect on Ser473 AKT phosphorylation", "setting": "[2]; DU-145, after 1 h", "result": "Transient inhibition"}, {"measurement": "AKT phosphorylation relative to control cells", "setting": "[2]; DU-145", "result": "higher"}, {"measurement": "effect on Ser473 AKT phosphorylation", "setting": "[2]; H1299, after 1 h", "result": "Transient inhibition"}, {"measurement": "AKT phosphorylation relative to control cells", "setting": "[2]; H1299", "result": "higher"}, {"measurement": "effect on Ser473 AKT phosphorylation", "setting": "[2]; MDA-MB-231, after 1 h", "result": "Transient inhibition"}, {"measurement": "AKT phosphorylation relative to control cells", "setting": "[2]; MDA-MB-231", "result": "higher"}, {"measurement": "effect on Ser473 AKT phosphorylation", "setting": "[2]; RPE-1, after 1 h", "result": "Transient inhibition"}, {"measurement": "AKT phosphorylation relative to control cells", "setting": "[2]; RPE-1", "result": "higher"}, {"measurement": "effect on Ser473 AKT phosphorylation", "setting": "[2]; T98, after 1 h", "result": "Transient inhibition"}, {"measurement": "rank of the inhibitory effect on Ser473 AKT phosphorylation among cell lines", "setting": "[2]; T98, after 1 h, inhibitory level kept after 5 h", "result": "most potent inhibitory effect"}, {"measurement": "effect on Ser473 AKT phosphorylation", "setting": "[2]; U87, after 1 h", "result": "Transient inhibition"}, {"measurement": "effect on Ser473 AKT phosphorylation", "setting": "[2]; U373, after 1 h", "result": "Transient inhibition"}, {"measurement": "kind of effect on senescent cells", "setting": "IR-RPE-1 senescent cells", "result": "rather senomorphic than senolytic effect"}, {"measurement": "cell phenotype in time-lapse microscopy", "setting": "U87 cells; proliferating U87, 100 μM, 72 h", "result": "rapid loss of cell spreading with a lack of mitotic activity and progressively occurring cell death"}, {"measurement": "induction of apoptosis (annexin V staining)", "setting": "U87 cells; time-lapse microscopy 72 h, 0–100 μM, Figure 5G", "result": "confirmed"}]}
